In patent publication US20240058422A1, “GLUCAGON-LIKE PEPTIDE-1 RECEPTOR ANTAGONISTS” (INDIANA UNIVERSITY RESEARCH AND TECHNOLOGY CORPORATION, priority 2022, published 2024):
pIC50: −log10 of the molar value. In brackets after ≈: the same amount, converted by molar mass. Like-named read-outs stand apart in the source and are kept apart here. Starred links: 1 amine or outer side, 2 acyl side, 3 side chain; linkers in the order of their positions; H or OH if unused. Non-standard residues stand in square brackets, D forms with d. Residues, ends and D or L forms follow the SMILES beside them. Groups on a side chain read outwards from the residue. *: point of attachment. C18 diacid = O=C(O)CCCCCCCCCCCCCCCCC(=O)*; γGlu = O=C(O)[C@H](CCC(=O)[*:2])N[*:1]; Palmitoyl = CCCCCCCCCCCCCCCC(=O)*; AEEA = NCCOCCOCC(=O)O; Aib = CC(C)(N)C(=O)O

Assays:
GLP-1R = GLP-1R (Homo sapiens, UniProt P43220); assay: GLP-1 receptor-mediated cAMP induction, luciferase reporter gene antagonism assay; format: cell-based; design: host or cells: HEK 293; details: antagonism of 0.05 nM GLP-1, HEK 293 cells
Method: GLP-1 Receptor-Mediated cAMP Induction The ability of peptides to stimulate or block cAMP induction at the GLP-1 receptor was examined by a luciferase-based reporter gene assay. Cotransfection of HEK 293 cells with the human GLP-1 receptor (Open Biosystems) and a cAMPinducible (cAMPresponsive element) luciferase gene constituted the cellular construct where receptor activation could be measured. Bioassays were performed by first serum depriving the cells for 16 h in 0.25% bovine growth serum (HyClone)-supplemented Dulbecco's modified Eagle's medium (Invitrogen) and then adding serial dilutions of the peptides over the appropriate concentration ranges in 96-well poly-D-lysine-coated plates (BD Biosciences). For antagonism assays, a constant concentration of GLP-1 (0.05 nM) was added to the assay plate after the diluted peptides. Incubation continued for 5 h at 37° C., 5% CO2 and was followed by the addition of an equivalent volume (100 μL) of LucLite luminescence substrate reagent (Perkin-Elmer). MicroBeta 1450 liquid scintillation counting (Perkin-Elmer) quantified the luminescence signal in counts per second (cps) after shaking the plate at 600 rpm for 3 min. Data was plotted using Origin software (OriginLab) and the effective concentration 50 (EC50) or inhibitory concentration 50 (IC50) was determined by sigmoidal fitting. Potency was determined by comparative analysis of relative EC50 or IC50 values. Each experiment was repeated at least three times with each sample assayed in duplicate.

[1] = 80 mM ammonium bicarbonate buffer, pH 7.7
[2] = Table 2, C16 linker variants of 9-40amide Jant4 K40[X], read-out: Biactivity IC50
[3] = 80 mM ammonium bicarbonate buffer, pH 7.7, Solubility [mg/mL] 80 mM AmBicarb pH7.7, Table 2, 80 mM AmBicarb pH7.7

Chain of GLP-1R (P43220 24-463): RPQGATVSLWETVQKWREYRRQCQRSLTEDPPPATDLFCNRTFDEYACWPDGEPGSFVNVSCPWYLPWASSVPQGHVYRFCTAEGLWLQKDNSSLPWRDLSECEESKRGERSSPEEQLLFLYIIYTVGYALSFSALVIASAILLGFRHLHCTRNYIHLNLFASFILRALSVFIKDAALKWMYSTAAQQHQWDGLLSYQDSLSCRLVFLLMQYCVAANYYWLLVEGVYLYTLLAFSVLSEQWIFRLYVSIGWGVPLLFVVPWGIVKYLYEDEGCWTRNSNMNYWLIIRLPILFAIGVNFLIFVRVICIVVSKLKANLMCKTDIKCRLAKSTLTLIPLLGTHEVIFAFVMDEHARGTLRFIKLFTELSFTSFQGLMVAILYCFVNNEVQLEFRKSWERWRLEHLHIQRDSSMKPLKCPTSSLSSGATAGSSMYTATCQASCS

CCCCCCCCCCCCCCCC(=O)NCCCC[C@H](NC(=O)[C@H](CO)NC(=O)[C@@H]1CCCN1C(=O)[C@@H]1CCCN1C(=O)[C@@H]1CCCN1C(=O)[C@H](C)NC(=O)CNC(=O)[C@H](CO)NC(=O)[C@H](CO)NC(=O)[C@@H]1CCCN1C(=O)CNC(=O)CNC(=O)[C@H](CCCNC(=N)N)NC(=O)[C@@H](NC(=O)[C@H](CC(C)C)NC(=O)[C@H](Cc1c[nH]c2ccccc12)NC(=O)[C@H](CCC(=O)O)NC(=O)[C@@H](NC(=O)[C@H](Cc1ccccc1)NC(=O)[C@H](CCC(=O)O)NC(=O)[C@H](CCCNC(=N)N)NC(=O)[C@@H](NC(=O)[C@H](C)NC(=O)[C@H](CCC(=O)O)NC(=O)[C@H](CCC(=O)O)NC(=O)[C@H](CCC(=O)O)NC(=O)[C@H](CC(C)C)NC(=O)[C@H](Cc1ccc(O)cc1)NC(=O)[C@H](CO)NC(=O)[C@H](CO)NC(=O)[C@@H](NC(=O)[C@@H](N)CC(=O)O)C(C)C)C(C)C)[C@@H](C)CC)C(C)C)C(N)=O [compound 72] (H-DVSSYLEEEAVREFIEWLVRGGPSSGAPPPSK(Palmitoyl)-NH2; N-terminus assumed)
pIC50 (GLP-1R; Table 3, amino acid substitution variants of Jant4-K40, read-out: Bioactivity IC50): 7.72 | solubility (Solubility in buffer; [1]): > 20 mg/mL

CCCCCCCCCCCCCCCC(=O)N[C@@H](CCC(=O)NCCOCCOCC(=O)N[C@@H](CCC(=O)NCCOCCOCC(=O)NCCCC[C@H](NC(=O)[C@H](CO)NC(=O)[C@@H]1CCCN1C(=O)[C@@H]1CCCN1C(=O)[C@@H]1CCCN1C(=O)[C@H](C)NC(=O)CNC(=O)[C@H](CO)NC(=O)[C@H](CO)NC(=O)[C@@H]1CCCN1C(=O)CNC(=O)CNC(=O)[C@H](CCCCN)NC(=O)[C@@H](NC(=O)[C@H](CC(C)C)NC(=O)[C@H](Cc1c[nH]c2ccccc12)NC(=O)[C@H](C)NC(=O)[C@@H](NC(=O)[C@H](Cc1ccccc1)NC(=O)[C@H](CCC(=O)O)NC(=O)[C@H](CCCNC(=N)N)NC(=O)[C@@H](NC(=O)[C@H](C)NC(=O)[C@H](CCC(N)=O)NC(=O)[C@H](CCC(=O)O)NC(=O)[C@H](CCC(=O)O)NC(=O)[C@H](CC(C)C)NC(=O)[C@H](Cc1ccc(O)cc1)NC(=O)[C@H](CO)NC(=O)[C@H](CO)NC(=O)[C@@H](NC(=O)[C@@H](N)CC(=O)O)C(C)C)C(C)C)[C@@H](C)CC)C(C)C)C(N)=O)C(=O)O)C(=O)O [compound 59] (H-DVSSYLEEQAVREFIAWLVKGGPSSGAPPPSK([AEEA-γGlu-AEEA-γGlu-Palmitoyl])-NH2; N-terminus assumed)
pIC50 (GLP-1R; [2]): 7.96 | solubility (Solubility in buffer; [3]): > 25 mg/mL

CC[C@H](C)[C@H](NC(=O)[C@H](Cc1ccccc1)NC(=O)[C@H](CCC(=O)O)NC(=O)[C@H](CCCNC(=N)N)NC(=O)[C@@H](NC(=O)[C@H](C)NC(=O)[C@H](CCC(N)=O)NC(=O)[C@H](CCC(=O)O)NC(=O)[C@H](CCC(=O)O)NC(=O)[C@H](CC(C)C)NC(=O)[C@H](Cc1ccc(O)cc1)NC(=O)[C@H](CO)NC(=O)[C@H](CO)NC(=O)[C@@H](NC(=O)[C@@H](N)CC(=O)O)C(C)C)C(C)C)C(=O)N[C@@H](C)C(=O)N[C@@H](Cc1c[nH]c2ccccc12)C(=O)N[C@@H](CC(C)C)C(=O)N[C@H](C(=O)N[C@@H](CCCCN)C(=O)NCC(=O)NCC(=O)N1CCC[C@H]1C(=O)N[C@@H](CO)C(=O)N[C@@H](CO)C(=O)NCC(=O)N[C@@H](C)C(=O)N1CCC[C@H]1C(=O)N1CCC[C@H]1C(=O)N1CCC[C@H]1C(=O)N[C@@H](CO)C(=O)N[C@@H](CCCCNC(=O)CC[C@H](NC(=O)CC[C@H](NC(=O)CC[C@H](NC(=O)CC[C@H](NC(=O)CCCCCCCCCCCCCCCCC(=O)O)C(=O)O)C(=O)O)C(=O)O)C(=O)O)C(N)=O)C(C)C [compound 65] (H-DVSSYLEEQAVREFIAWLVKGGPSSGAPPPSK([γGlu-γGlu-γGlu-γGlu-C18 diacid])-NH2; N-terminus assumed)
pIC50 (GLP-1R; [2]): 5.97 | solubility (Solubility in buffer; [3]): > 25 mg/mL

CCCCCCCCCCCCCCCC(=O)NCCCC[C@H](NC(=O)[C@H](CO)NC(=O)[C@@H]1CCCN1C(=O)[C@@H]1CCCN1C(=O)[C@@H]1CCCN1C(=O)[C@H](C)NC(=O)CNC(=O)[C@H](CO)NC(=O)[C@H](CO)NC(=O)[C@@H]1CCCN1C(=O)CNC(=O)CNC(=O)[C@H](CCCCN)NC(=O)[C@@H](NC(=O)[C@H](CC(C)C)NC(=O)[C@H](Cc1c[nH]c2ccccc12)NC(=O)[C@H](C)NC(=O)[C@@H](NC(=O)[C@H](Cc1ccccc1)NC(=O)[C@H](CCC(=O)O)NC(=O)[C@H](CCCNC(=N)N)NC(=O)[C@@H](NC(=O)[C@H](C)NC(=O)[C@H](CCC(N)=O)NC(=O)[C@H](CCC(=O)O)NC(=O)[C@@H](CCC(=O)O)NC(=O)[C@H](CC(C)C)NC(=O)[C@H](Cc1ccc(O)cc1)NC(=O)[C@H](CO)NC(=O)[C@H](CO)NC(=O)[C@@H](NC(=O)[C@@H](N)CC(=O)O)C(C)C)C(C)C)[C@@H](C)CC)C(C)C)C(N)=O [compound 49] (H-DVSSYL[dE]EQAVREFIAWLVKGGPSSGAPPPSK(Palmitoyl)-NH2; N-terminus assumed)
pIC50 (GLP-1R; Table 5, d-AA variants of 9-40am Jant4 K40[C16], read-out: Bioactivity KC50): 7.64 | solubility (Solubility in buffer; 80 mM ammonium bicarbonate buffer, pH 7.7, Solubility [mg/mL] 80 mM/AmBicarb pH7.7, Table 5, 80 mM AmBicarb pH7.7): > 20 mg/mL

CCCCCCCCCCCCCCCC(=O)N[C@@H](CCC(=O)N[C@@H](CCC(=O)NCCOCCOCC(=O)NCCOCCOCC(=O)NCCCC[C@H](NC(=O)[C@H](CO)NC(=O)[C@@H]1CCCN1C(=O)[C@@H]1CCCN1C(=O)[C@@H]1CCCN1C(=O)[C@H](C)NC(=O)CNC(=O)[C@H](CO)NC(=O)[C@H](CO)NC(=O)[C@@H]1CCCN1C(=O)CNC(=O)CNC(=O)[C@H](CCCCN)NC(=O)[C@@H](NC(=O)[C@H](CC(C)C)NC(=O)[C@H](Cc1c[nH]c2ccccc12)NC(=O)[C@H](C)NC(=O)[C@@H](NC(=O)[C@H](Cc1ccccc1)NC(=O)[C@H](CCC(=O)O)NC(=O)[C@H](CCCNC(=N)N)NC(=O)[C@@H](NC(=O)[C@H](C)NC(=O)[C@H](CCC(N)=O)NC(=O)[C@H](CCC(=O)O)NC(=O)[C@H](CCC(=O)O)NC(=O)[C@H](CC(C)C)NC(=O)[C@H](Cc1ccc(O)cc1)NC(=O)[C@H](CO)NC(=O)[C@H](CO)NC(=O)[C@@H](NC(=O)[C@@H](N)CC(=O)O)C(C)C)C(C)C)[C@@H](C)CC)C(C)C)C(N)=O)C(=O)O)C(=O)O [compound 58] (H-DVSSYLEEQAVREFIAWLVKGGPSSGAPPPSK([AEEA-AEEA-γGlu-γGlu-Palmitoyl])-NH2; N-terminus assumed)
solubility (Solubility in buffer; [3]): > 25 mg/mL

CCCCCCCCCCCCCCCC(=O)N[C@@H](CCC(=O)NCCOCCOCC(=O)NCCCC[C@H](NC(=O)[C@H](CO)NC(=O)[C@@H]1CCCN1C(=O)[C@@H]1CCCN1C(=O)[C@@H]1CCCN1C(=O)[C@H](C)NC(=O)CNC(=O)[C@H](CO)NC(=O)[C@H](CO)NC(=O)[C@@H]1CCCN1C(=O)CNC(=O)CNC(=O)[C@H](CCCCN)NC(=O)[C@@H](NC(=O)[C@H](CC(C)C)NC(=O)[C@H](Cc1c[nH]c2ccccc12)NC(=O)[C@H](C)NC(=O)[C@@H](NC(=O)[C@H](Cc1ccccc1)NC(=O)[C@H](CCC(=O)O)NC(=O)[C@H](CCCNC(=N)N)NC(=O)[C@@H](NC(=O)[C@H](C)NC(=O)[C@H](CCC(N)=O)NC(=O)[C@H](CCC(=O)O)NC(=O)[C@H](CCC(=O)O)NC(=O)[C@H](CC(C)C)NC(=O)[C@H](Cc1ccc(O)cc1)NC(=O)[C@H](CO)NC(=O)[C@H](CO)NC(=O)[C@@H](NC(=O)[C@@H](N)CC(=O)O)C(C)C)C(C)C)[C@@H](C)CC)C(C)C)C(N)=O)C(=O)O [compound 56] (H-DVSSYLEEQAVREFIAWLVKGGPSSGAPPPSK([AEEA-γGlu-Palmitoyl])-NH2; N-terminus assumed)
solubility (Solubility in buffer; [3]): > 20 mg/mL

CCCCCCCCCCCCCCCC(=O)NCCCC[C@H](NC(=O)[C@H](CO)NC(=O)[C@@H]1CCCN1C(=O)[C@@H]1CCCN1C(=O)[C@@H]1CCCN1C(=O)[C@H](C)NC(=O)CNC(=O)[C@H](CO)NC(=O)[C@H](CO)NC(=O)[C@@H]1CCCN1C(=O)CNC(=O)CNC(=O)[C@H](CCCCN)NC(=O)[C@@H](NC(=O)[C@H](CC(C)C)NC(=O)[C@H](Cc1c[nH]c2ccccc12)NC(=O)C(C)(C)NC(=O)[C@@H](NC(=O)[C@H](Cc1ccccc1)NC(=O)[C@H](CCC(=O)O)NC(=O)[C@H](CCCNC(=N)N)NC(=O)[C@@H](NC(=O)[C@H](C)NC(=O)[C@H](CCC(N)=O)NC(=O)[C@H](CCC(=O)O)NC(=O)[C@H](CCC(=O)O)NC(=O)[C@H](CC(C)C)NC(=O)[C@H](Cc1ccc(O)cc1)NC(=O)[C@H](CO)NC(=O)[C@H](CO)NC(=O)[C@@H](NC(=O)[C@@H](N)CC(=O)O)C(C)C)C(C)C)[C@@H](C)CC)C(C)C)C(N)=O [compound 83] (H-DVSSYLEEQAVREFI[Aib]WLVKGGPSSGAPPPSK(Palmitoyl)-NH2)
solubility (Solubility in buffer; [1]): 12.6 mg/mL (≈ 3.45 mM) | solubility (Solubility in buffer; PBS, pH 7.7): 0.3 mg/mL (≈ 0.0821 mM)
